Measured values from patent US20150094354A1, “METHOD FOR TREATING CELL PROLIFERATIVE DISORDER BY INHIBITING C1GALT1 EXPRESSION” (National Taiwan University, priority 2013, published 2015).

Legend:
C1GALT1 [1] = biological target: T1, C1GALT1 (Homo sapiens, UniProt Q9NS00); assay: FITC-VVA FACS analysis of Tn antigen accumulation in CL1-5 lung cancer cells; assay type: cell-based; set-up: endogenous in cells; conditions: for VVA peak shift (accumulation of Tn antigens): itraconazole 10 ug/ml
Method: (§1) FIGS. 85A-85D are graphs illustrating that itraconazole impairs C1GALT1 function leading to the accumulation of Tn antigen expression in lung cancer cells in accordance with an embodiment of the present invention. […] After itraconazole treatment, cells are detached with 5 mM EDTA. Afterwards, FITC conjugated Vicia villosa agglutinin (VVA), lectin specifically recognizing Tn antigen, is applied for analysis with a fluoresencce-activated cell sorting (FACS) system. A right-shift of the VVA peak indicates accumulation of Tn antigens. […] After itraconazole treatment, cells are detached with 5 mM EDTA and treated with or without 10 mU/ml neuraminidase to unmask the effects of sialylated O-glycans. After treatment with neuraminidase, FITC conjugated Vicia villosa agglutinin (VVA), lectin specifically recognizing Tn antigen, is applied for analysis with a fluoresencce-activated cell sorting (FACS) system. […] To confirm whether the peak shift is a result of impaired C1GALT1 function, mock and C1GALT1 overexpressed CL1-5 cells are analyzed. […] Overexpression of C1GALT1 results in a left-shift of the VVA peak in itraconazole untreated transfectants, indicating intact C1GALT1 function in depleting Tn antigens as substrates for T antigen synthesis.
Target sequence in this assay (Q9NS00 whole entry): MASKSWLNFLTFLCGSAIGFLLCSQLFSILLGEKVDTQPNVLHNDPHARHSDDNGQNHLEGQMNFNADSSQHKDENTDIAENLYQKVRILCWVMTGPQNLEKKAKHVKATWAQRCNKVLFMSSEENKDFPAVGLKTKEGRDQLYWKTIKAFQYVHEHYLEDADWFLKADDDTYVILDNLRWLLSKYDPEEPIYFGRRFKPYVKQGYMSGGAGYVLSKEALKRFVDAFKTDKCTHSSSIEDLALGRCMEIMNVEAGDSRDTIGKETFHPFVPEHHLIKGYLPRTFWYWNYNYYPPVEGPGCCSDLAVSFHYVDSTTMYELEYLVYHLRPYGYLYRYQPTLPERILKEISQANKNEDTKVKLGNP

T47D cell lines = assay: MTT cell growth assay, breast cancer cells (itraconazole); assay type: cell-based, human; set-up: dose or concentration left out as unconfirmed; conditions: itraconazole for 5 days, compared with control (DMSO)
Method: (§2) FIG. 88B is a schematic diagram illustrating that itraconazole suppresses breast cancer cell growth in accordance with an embodiment of the present invention. To determine whether impairing C1GALT1 function affects breast cancer cell malignant phenotypes, the effects of itraconazole on breast cancer cell growth are analyzed by MTT cell growth assay in T47D cell lines. Cells (3×10^3) are seeded into 96-well microtitre plates and treated with DMSO (control) or itraconazole 10 µg/ml for 5 days at 37° C. under 5% CO2 atmosphere. Results from two independent experiments are presented as mean±SD and analyzed with student's t-test, *p<0.05 and **p<0.01.

C1GALT1 [2] = biological target: T1, C1GALT1; assay: FITC-VVA FACS analysis of Tn antigen accumulation in T47D breast cancer cells; assay type: cell-based; set-up: endogenous in cells; host or cells: T47D breast cancer cells
Method: as §1, with “86A-86D” for “85A-85D”, “breast” for “lung”, “indicates the” for “indicates”, “T47D” for “CL1-5”, “itraconazole-untreated” for “itraconazole untreated”

CL1-5 cell lines = assay: MTT cell growth assay, lung cancer cells; assay type: cell-based, human; set-up: dose or concentration left out as unconfirmed; conditions: CL1-5, itraconazole for 5 days, compared with control (DMSO)
Method: as §2, with “88A” for “88B”, “lung” for “breast”, “CL1-5” for “T47D”

C1GALT1 [3] = biological target: T1, C1GALT1; assay: FITC-VVA FACS analysis of Tn antigen accumulation in HCC36 liver cancer cells; assay type: cell-based; set-up: endogenous in cells; conditions: for VVA peak shift (accumulation of Tn antigens): itraconazole 10 ug/ml
Description: According to another embodiment of the present invention, in the experiment in vitro, itraconazole, a small molecular drug, is used as the C1GALT1 inhibition substance. Itraconazole is an FDA approved drug that is clinically employed as an antimicrobial for the treatment of fungal, mycosis, and candida infections. The inventors of the present invention discovered that the structure of itraconazole is suitable for binding to the catalytic domain of C1GALT1 and inhibiting C1GALT1. Cells are cultured in DMEM with 10% FBS and treated with itraconazole 10 ug/ml for 3 days at 37° C. under 5% CO2.
(§3) FIGS. 87A-87D are graphs illustrating that itraconazole impairs C1GALT1 function leading to accumulation of Tn antigen expression in lung cancer cells in accordance with an embodiment of the present invention. […] After itraconazole treatment, cells are detached with 5 mM EDTA. Afterwards, FITC conjugated Vicia villosa agglutinin (VVA), lectin specifically recognizing Tn antigen, is applied for analysis with a fluoresencce-activated cell sorting (FACS) system. A right-shift of VVA peak indicates the accumulation of Tn antigens. […] After itraconazole treatment, cells are detached with 5 mM EDTA and treated with or without 10 mU/ml neuraminidase to unmask the effects of sialylated O-glycans. After treatment with neuraminidase, FITC conjugated Vicia villosa agglutinin (VVA), lectin specifically recognizing Tn antigen, is applied for analysis with a fluoresencce-activated cell sorting (FACS) system. […] To confirm whether the peak shift is a result of impaired C1GALT1 function, mock and C1GALT1 overexpressed HCC36 cells are analyzed. […] Overexpression of C1GALT1 results in left-shift of the VVA peak in itraconazole-untreated transfectants, indicating intact C1GALT1 function in depleting Tn antigens as substrates for T antigen synthesis.
Target sequence in this assay (Q9NS00 whole entry): as above

C1GALT1 [4] = assay: FITC-VVA FACS analysis of Tn antigen accumulation in T47D breast cancer cells; assay type: cell-based, human; conditions: mock and C1GALT1 overexpressed T47D transfectants, itraconazole 10 ug/ml
Method: as §3, with “FIGS. 86A-86D are graphs” for “FIGS. 87A-87D are graphs”, “leading to the accumulation of” for “leading to accumulation of”, “expression in breast cancer cells” for “expression in lung cancer cells”, “right-shift of the VVA peak” for “right-shift of VVA peak”, “C1GALT1 overexpressed T47D cells are” for “C1GALT1 overexpressed HCC36 cells are”, “results in a left-shift of” for “results in left-shift of”

HCC36 cell lines = assay: MTT cell growth assay, liver cancer cells; assay type: cell-based, human; set-up: dose or concentration left out as unconfirmed; conditions: HCC36, itraconazole for 5 days, compared with control (DMSO)
Method: as §2, with “88C” for “88B”, “liver” for “breast”, “HCC36” for “T47D”

HCC36 cells = assay: Trypan blue exclusion assay of C1GALT1-enhanced cell viability with MET inhibitor; assay type: cell-based, human; conditions: HCC36, C1GALT1 overexpression, 72 hours
Method: (§4) Cells (4×10^4) are seeded in each well of 6-well plates with DMEM containing 10% FBS. Viable cells are analyzed by Trypan blue exclusion assay at 0, 24, 48, and 72 hours. Cell proliferation is evaluated by immunostaining with anti-Ki67 antibody (1:1000; Vector Laboratories). For cell-cycle analysis, 1×10^6 cells are stained with propidium iodide (Sigma) for 30 minutes. The percentages of cells in G1, S, and G2M phases are analyzed by flow cytometry (Becton Dickinson). […] Data are represented as means±SD from three independent experiments (** refers to P<0.01).

Sk-Hep1 cells = assay: as above; assay type: cell-based, human; conditions: Sk-Hep1, C1GALT1 overexpression, 72 hours
Method: as §4

| SMILES | VVA peak shift (accumulation of Tn antigen substrates) (C1GALT1 [1]; C1GALT1 overexpressed CL1-5 cells, sialylated O-glycans unmasked by neuraminidase) | VVA peak shift (accumulation of Tn antigens) (C1GALT1 [1]; CL1-5 parental cells, regardless of sialylated O-glycans) | VVA peak shift (accumulation of Tn antigens) (C1GALT1 [1]; mock and C1GALT1 overexpressed CL1-5 transfectants) | breast cancer cell growth (T47D cell lines) | VVA peak shift (accumulation of Tn antigen substrates) (C1GALT1 [2]; C1GALT1 overexpressed T47D cells, sialylated O-glycans unmasked by neuraminidase) | VVA peak shift (accumulation of Tn antigens) (C1GALT1 [2]; T47D parental cells, itraconazole 10 ug/ml, regardless of sialylated O-glycans) | lung cancer cell growth (CL1-5 cell lines) | VVA peak shift (accumulation of Tn antigen substrates) (C1GALT1 [3]; C1GALT1 overexpressed HCC36 cells, sialylated O-glycans unmasked by neuraminidase) | VVA peak shift (accumulation of Tn antigens) (C1GALT1 [3]; HCC36 parental cells, regardless of sialylated O-glycans) | VVA peak shift (accumulation of Tn antigens) (C1GALT1 [3]; mock and C1GALT1 overexpressed HCC36 transfectants) | VVA peak shift (accumulation of Tn antigens) (C1GALT1 [4]) | liver cancer cell growth (HCC36 cell lines) | C1GALT1-enhanced cell viability (HCC36 cells) | C1GALT1-enhanced cell viability (Sk-Hep1 cells) |
| --- | --- | --- | --- | --- | --- | --- | --- | --- | --- | --- | --- | --- | --- | --- |
| CCC(C)n1ncn(-c2ccc(N3CCN(c4ccc(OCC5COC(Cn6cncn6)(c6ccc(Cl)cc6Cl)O5)cc4)CC3)cc2)c1=O (centres unmarked) [itraconazole] | major peak shifts to the right | right shift of the VVA peak | major right-shift of the VVA peaks | significantly suppressed | major peak shifts to the right | right shift of the VVA peak | significantly suppressed | major peak shifts to the right | right shift of the VVA peak | major right-shift of the VVA peaks | major right-shift of the VVA peaks | significantly suppressed |  |  |
| Cc1[nH]c(/C=C2\C(=O)Nc3ccc(S(=O)(=O)Cc4c(Cl)cccc4Cl)cc32)c(C)c1C(=O)N1CCC[C@@H]1CN1CCCC1 [PHA665752] |  |  |  |  |  |  |  |  |  |  |  |  | significantly inhibited | significantly inhibited |
